This note sets out measurements from patent US5527804A, “4-carbamoyloxy-piperidine-1-carboxylic acid esters: inhibitors or cholesterol absorption” (American Home Products Corporation, priority 1994, dated 1996).

The test system of test [1] is absorption of 14C-cholesterol. The test is described as follows: In vivo cholesterol absorption, serum radioactivity after oral [4-14C] cholesterol. On the set-up: species or system normal rats. Conditions: normal rat, 6 hr, vs control. As to the method: In Vivo Assay: The in vivo cholesterol absorption studies were conducted in normal rats by oral administration of the compound being tested in propylene glycol and olive oil followed by oral administration of [4-^14 C] cholesterol in propylene glycol and olive oil, otherwise following the procedure of Cayen et al., J. Lipid Res. 20, 162 (1979). The serum radioactivity was measured at six hours after dosing. The results of this study are reported in Table I as percent decrease compared to control.

Test [2] has as its target T1, cholesterol esterase (EC 3.1.1.13), CEH (Bos taurus, UniProt P30122).
T1 construct: purchased Sigma Company, St. Louis, Mo; C-1892; host or cells: bovine pancreas
T1 sequence (P30122 19-597): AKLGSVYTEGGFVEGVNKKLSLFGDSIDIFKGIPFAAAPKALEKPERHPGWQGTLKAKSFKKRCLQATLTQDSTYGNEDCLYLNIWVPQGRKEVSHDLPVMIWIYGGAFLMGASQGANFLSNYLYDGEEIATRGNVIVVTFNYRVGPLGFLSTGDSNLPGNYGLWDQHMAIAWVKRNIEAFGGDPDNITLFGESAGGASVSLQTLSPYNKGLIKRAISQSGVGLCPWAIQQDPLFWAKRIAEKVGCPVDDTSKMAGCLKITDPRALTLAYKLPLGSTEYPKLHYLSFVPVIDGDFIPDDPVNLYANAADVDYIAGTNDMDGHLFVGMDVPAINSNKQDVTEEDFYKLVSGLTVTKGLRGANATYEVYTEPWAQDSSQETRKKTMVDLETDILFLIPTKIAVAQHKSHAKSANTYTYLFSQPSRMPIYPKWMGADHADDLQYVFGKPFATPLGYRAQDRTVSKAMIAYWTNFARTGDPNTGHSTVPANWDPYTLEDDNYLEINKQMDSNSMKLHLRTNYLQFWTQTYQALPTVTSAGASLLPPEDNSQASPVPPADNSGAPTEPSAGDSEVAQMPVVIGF
The test is described as follows: In vitro inhibition of cholesteryl ester formation by cholesterol esterase (CEH). In kind it is biochemical. How it is done: In Vitro Assay: The ability of the compounds of this invention to inhibit the formation of cholesteryl esters and thereby interfere with and prevent assimilation of cholesterol into the lymphatic system and ultimately the blood stream was established by incubating the compounds at 37° C. with a mixture of cholesterol and oleic acid in the presence of buffered cholesterol esterase [(EC 3.1.1.13) Sigma Company, St. Louis, Mo., U.S.A., No. C-1892, from bovine pancreas] and measuring the amount of ester formed, according to the procedure of Field, J. of Lipid Research, 25, 389 (1984).

Setting [3] is: IC25 instead of IC50; 37° C.; cholesterol + oleic acid; bovine pancreas enzyme.
Setting [4] is: 37° C.; cholesterol + oleic acid; bovine pancreas enzyme; read-out: In Vitro Results IC50 CEH.

Where two headings read alike, the source gives them in different places.

In general, IC50 refers to the concentration that gives 50% inhibition. Turning to `CCCCCCNC(=O)OC1CCN(C(=O)OCCCCCCNC(=O)Oc2ccc(Oc3ccccc3)cc2)CC1` [Example 6, 4-(Hexylcarbamoyloxy)-piperidine-1-carboxylic acid 6-[(4-phenoxy-phenyl)-oxycarbonylamino]-hexyl ester], in test [1] (3 mg/kg), the “Effect on Absorption of 14C-Chol, % Decrease” value (“Effect … % Decrease” for short) is recorded as 49%. For the same compound, the IC50 in test [2] (read-out: In Vitro Results IC50 CEH; 37° C.; cholesterol + oleic acid; bovine pancreas enzyme) stood at 1100 nM.
For orientation: IC25 means the concentration at which the effect reaches the 25% level. Take `O=C(NCCCCCCOC(=O)N1CCC(OC(=O)N2CCC3(CCCC3)CC2)CC1)Oc1ccc(Oc2ccccc2)cc1` [Example 7, 8-Aza-spiro[4.5]decane-8-carboxylic acid 1-{6-[(4-phenoxy-phenyl)-oxycarbonylamino]-hexyloxycarbonyl}-piperidin-4-yl ester]: the “Effect … % Decrease” value in test [1] (10 mg/kg) worked out at 50%. Besides, the 25% effect concentration (IC25) in test [2] (setting [3]) was found to be 200 nM.
For the compound `CCCCCCCCCCNC(=O)OC1CCN(C(=O)OCCCCCCNC(=O)Oc2ccc(Oc3ccccc3)cc2)CC1` [Example 8, 4-(Decylcarbamoyloxy)-piperidine-1-carboxylic acid 6-[(4-phenoxy-phenyl)-oxycarbonylamino]-hexyl ester], the “Effect … % Decrease” value in test [1] (10 mg/kg) amounted to 43%. Moreover, the IC50 in test [2] (setting [4]) amounted to 3000 nM.
For `O=C(NCCCCCCOC(=O)N1CCC(OC(=O)NC2CCCCC2)CC1)Oc1ccc(Oc2ccccc2)cc1` [Example 9, 4-(Cyclohexylcarbamoyloxy)-piperidine-1-carboxylic acid 6-[(4-phenoxy-phenyl)-oxycarbonylamino]-hexyl ester], the “Effect … % Decrease” value in test [1] (10 mg/kg) is 46%. In test [2] (setting [3]), the IC25 was determined as 300 nM.
The corresponding values for `O=C(NCCCCCCOC(=O)N1CCC(OC(=O)NCCCCc2ccccc2)CC1)Oc1ccc(Oc2ccccc2)cc1` [Example 10, 4-(4-Phenyl-butyl-carbamoyloxy)-piperidine-1-carboxylic acid 6-[(4-phenoxy-phenyl)-oxycarbonylamino]-hexyl ester] are 61% and 300 nM.
Take `O=C(NCCCCCCOC(=O)N1CCC(OC(=O)N2CCCCC2)CC1)Oc1ccc(Oc2ccccc2)cc1` [Example 11, 4-(Piperidine-1-carbonyloxy)-piperidine-1-carboxylic acid 6-[(4-phenoxy-phenyl)oxycarbonylamino]-hexyl ester]: in test [1] (10 mg/kg), the “Effect … % Decrease” value is reported as 81%. The IC50 in test [2] (setting [4]) was 5900 nM.
